The numbers were not newly measured in patent publication US10925895B2, “Composition and method of using medicament for treatment of cancers and tumors” (priority 2014, dated 2021), which cites them from elsewhere.

Where two headings read alike, the source gives them in different places.

Regarding `[Ca+2].[OH-].[OH-]` [Calcium hydroxide, calcium hydroxide], in the data set with Enterococcus faelicalis, the “effectiveness against Enterococcus faecalis” value is recorded as “ineffective”.

As for `OCl` [Sodium hypochlorite, sodium hypochlorite], the “effectiveness as tissue dissolving agent” value in the data set with organic tissue (5.25% for 40 minutes) is recorded as “highly effective”; with organic tissue (at 1.3-2.5%) it was “ineffective”. Moreover, in the data set with Enterococcus faelicalis, the “effectiveness against Enterococcus faecalis” value was “not effective”.
